In paper PMC7083851, “Extended pharmacodynamic responses observed upon PROTAC-mediated degradation of RIPK2” (Communications Biology, 2020):
Values joined by “and” are separate entries in the source; they are usually repeats but may differ in a detail not shown here. Equal entries are not always repeated.

Assays:
[1] = test system: L18-MDP-induced cytokine release; test: In vivo L18-MDP acute inflammation model, serum cytokines (TNFα, IL-6, IL-8); set-up: species or system rat; cytokine level (fig 6a) / cytokine level (fig 6b) / cytokine level (fig 6c): unit not given here; conditions: for cytokine level (fig 6a) / cytokine level (fig 6b) / cytokine level (fig 6c): serum, individual rats, beside L18-MDP control;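 as to cytokine level (fig 6a): time is length of PROTAC pretreatment before a 2 h L18-MDP challenge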;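 as to cytokine level (fig 6b): time is length of PROTAC pretreatment before a 2 h L18-MDP challenge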;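 as to cytokine level (fig 6c): time is length of PROTAC pretreatment before a 2 h L18-MDP challenge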
Protocol: In vivo L18-MDP administration to rodents results in an acute inflammatory response characterised by the rapid production of inflammatory cytokines. […]. […]. Blood concentrations of 6 and 7 tracked closely and dropped below the LLQ after 24 h.
. Cytokine levels were determined in serum generated from the terminal blood samples and in tissue lysates as detailed below.
Cytokine measurement assay: Cytokine levels were measured in rat plasma or rat PBMCs cell culture supernatants using rat V-Plex TNFα, in human plasma or human PBMCs cell culture supernatants with either TNFα tissue culture or 7-plex kit. Rat serum and tissues samples from the in vivo L18-MDP acute inflammation model were analyzed using the rat TNFα, Il-6 and IL-8 U-Plex kits. All kits provided by Meso Scale Discovery (MSD). Levels of cytokines spontaneously released from human colon biopsies cell culture supernatants were measured using Human IL-1 beta/IL-1F2 DuoSet ELISA (Bio-techne), Human IL-6 ELISA (Immunotools) and Human TNF-alpha DuoSet ELISA (Bio-techne). All samples were processed accordingly to the manufacturer’s instructions. The MSD plates were analyzed using the MSD sector imager 6000 plate reader and cytokines concentration (pg/ml) was obtained by using the MSD DISCOVERY WORKBENCH software version 4.0.12.1
For in vivo studies, RIPK2:tubulin ratios and cytokine levels from each individual experiment were analysed either using a One-way ANOVA with Dunnet’s post-test or a two way ANOVA using GraphPad Prism 5.0.4 to determine statistical significance with 95% confidence levels.

[2] = test system: Caspases 3 and 7; test: Caspase 3/7 activation in human PBMCs (Caspase-Glo 3/7), 24 h
[3] = molecular target: T1, RIPK2 (Homo sapiens, UniProt O43353); test: RIPK2 fluorescence polarisation binding assay
[4] = Hepatocyte CLint, human; format: in vitro ADME; conditions: human liver hepatocytes
Protocol: Metabolic stability was performed at Cyprotex (UK). Pooled liver microsomes / cryopreserved pooled hepatocytes were purchased from a commercial supplier (BD Biosciences or Corning/InVitro Technologies).
The final incubation volume was 500 µL. An appropriate vehicle control was used. Each compound was incubated for 0, 5, 10, 20, 40, and 60 min. The control (vehicle) was incubated for 60 min.
All incubations were terminated by transferring 50 μL of incubate to 100 μL of acetonitrile containing internal standard at the appropriate time points. The termination plates were centrifuged at 2500 rpm for 20–30min at 4 °C to precipitate the protein. Following protein precipitation, samples were analysed using quantitative LC-MS/MS.

[5] = molecular target: T1, RIPK2; test: RIPK2 degradation in human PBMCs (immunoassay); format: cell-based; set-up: endogenous in cells; host or cells: primary human PBMCs from leukodepletion filters (NHSBT); conditions: 24 h
Protocol: PBMCs were isolated from leukodepletion filter from platelet aphaeresis supplied by National Health System Blood and Transplant—NHSBT Apheresed at NHBST.
Before treatment with compound or vehicle, THP1 cells, human and rat PBMCs were counted using Vi-Cell cell counter (Invitrogen) and adjusted to a final cell density of […] using complete growth medium. Cells or whole blood were treated with vehicle (0.1% DMSO) or fixed concentrations of compound up to 1 μM in half log unit increments and incubated for the time period indicated in the figure.
Where the assessment of cytokines was performed, L18-MDP was added to the cell culture media (1 μg/ml) or to the rat blood samples (100 ng/ml) and samples were incubated for up to 4 h. […] Samples were them spun down at 1000 g and the cell culture supernatant, plasma or serum were collected for cytokines assessment, while cell pellets were used for RIPK2 and/or cIAP1, cIAP2, and XIAP levels analysis via immunoblotting.
Simple Western immunoassay: Cell lysates were mixed with 5× concentrated master mix (Protein Simple) and denatured at 95 °C on a heat block for 5 min together with the provided ladder (Protein Simple). Antibodies were diluted in the provided buffer as following: anti-RIPK2 (1:10 or 1:50), anti-cIAP1(1:10), anti-cIAP2 (1:10), anti-XIAP (1:10), mouse anti-β-actin (Abcam - 1:1000), rabbit anti-β-actin (Abcam - 1:50) and anti-vinculin (1:100). All reagents (blocking buffer, primary and secondary antibodies, streptavadin, luminol/peroxide, separation matrix, stacking matrix and water) were added to the Protein Simple plate containing the ladder and lysates and the plate was placed in a Protein Simple Western instrument and the Simple Western default size assay protocol was used. […] The area under the peak values obtained for RIPK2, cIAP1, cIAP2 or XIAP were normalized relative to the control protein values.
In vitro experimental data were analyzed using a 4-parameter logistic equation in GraphPad Prism 5.0.4. to generate an estimate of the half-maximal concentration and maximal degradation, DC50 and Dmax value respectively, for concentration-degradation relationships. Cytokine levels were analyzed in a similar manner to yield IC50 and Imax values. […] Where analysis to a sigmoidal relationship was not possible, the data points are shown as mean ± s.e.m.

T1 sequence (O43353 whole entry): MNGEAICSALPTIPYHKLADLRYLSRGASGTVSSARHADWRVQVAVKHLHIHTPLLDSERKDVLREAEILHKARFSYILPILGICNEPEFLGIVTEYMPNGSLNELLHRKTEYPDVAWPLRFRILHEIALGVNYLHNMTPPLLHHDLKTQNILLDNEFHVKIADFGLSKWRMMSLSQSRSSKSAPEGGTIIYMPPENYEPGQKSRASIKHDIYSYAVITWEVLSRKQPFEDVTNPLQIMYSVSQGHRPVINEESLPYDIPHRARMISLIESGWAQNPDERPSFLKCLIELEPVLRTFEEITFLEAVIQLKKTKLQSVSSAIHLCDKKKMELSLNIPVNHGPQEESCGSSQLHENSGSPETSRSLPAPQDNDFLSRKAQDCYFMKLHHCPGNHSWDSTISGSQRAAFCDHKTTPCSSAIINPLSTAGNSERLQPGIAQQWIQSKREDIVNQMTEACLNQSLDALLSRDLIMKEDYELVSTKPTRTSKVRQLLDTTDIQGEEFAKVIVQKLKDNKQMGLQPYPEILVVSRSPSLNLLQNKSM

CN[C@@H](C)C(=O)N[C@H](C(=O)N1C[C@@H](NC(=O)c2cnc(N3CCN(CCCOc4cc5ncnc(Nc6n[nH]c(C)c6C)c5cc4S(=O)(=O)C(C)(C)C)CC3)cn2)C[C@H]1C(=O)Nc1c(F)cccc1F)C(C)(C)C [PROTAC 6]
inhibition of serum cytokines ([1]; rat, 0.3 mg/kg SC, intravenous L18-MDP challenge, first three days): > 75% | cytokine level (fig 6a) ([1]; time 6 h): 18.49 (2×) and 16.66 and 19.87 and 20.63 | cytokine level (fig 6b) ([1]; time 6 h): 1.67 and 2.89 and 2.19 and 1.98 and 1.58 | cytokine level (fig 6c) ([1]; time 6 h): 4 (3×) and 5 and 3 | cytokine level (fig 6a) ([1]; time 24 h): 17.80 and 19.20 and 17.38 and 15.28 and 17.94 | cytokine level (fig 6b) ([1]; time 24 h): 3.64 and 5.77 and 5.56 and 2.08 and 8.31 | cytokine level (fig 6c) ([1]; time 24 h): 1 (3×) and 2 (2×) | cytokine level (fig 6a) ([1]; time 72 h): 19.88 and 25.30 and 22.33 and 26.08 and 26.21 | cytokine level (fig 6b) ([1]; time 72 h): 18.18 and 42.78 and 20.80 and 21.32 and 12.42 | cytokine level (fig 6c) ([1]; time 72 h): 19 and 9 and 13 and 7 and 24 | cytokine level (fig 6a) ([1]; time 240 h): 63.85 and 82.37 and 43.93 and 24.16 and 36.40 | cytokine level (fig 6b) ([1]; time 240 h): 64.23 and 50.00 and 38.00 and 38.38 and 36.37 | cytokine level (fig 6c) ([1]; time 240 h): 28 and 68 and 85 and 81 and 23 | cytokine level (fig 6a) ([1]; time 408 h): 65.92 and 78.49 and 54.66 and 71.18 and 46.33 | cytokine level (fig 6b) ([1]; time 408 h): 61.45 and 97.28 and 63.67 and 57.26 and 26.18 | cytokine level (fig 6c) ([1]; time 408 h): 30 and 38 and 69 and 58 and 40 | effect on caspases 3/7 activation, in words [2]: no

CN[C@@H](C)C(=O)N[C@H](C(=O)N1CCC[C@H]1c1nc(C(=O)c2ccc(F)cc2)cs1)C1CCN(C(=O)c2cnc(N3CCN(CCOc4cc5ncnc(Nc6n[nH]c(C)c6C)c5cc4S(=O)(=O)C(C)(C)C)CC3)nc2)CC1 [PROTAC 4]
RIPK2 FP pIC50 ± SEM (n) [3]: 6.6 ± 0.02 (8) | clearance in hepatocytes [4]: < 0.45 mL/min/g liver | hPBMC pDC50 ± SEM, 24 h (n = 3) ([5]; RIPK2 degradation): 7.9 ± 0.2 | hPBMC Dmax ± SEM, 24 h (n = 3) ([5]; maximal RIPK2 degradation): 69.2 ± 11.5%
